Reference: US8450525B2, “Histone deacetylase inhibitors” (Orchid Chemicals & Pharmaceuticals Limited, priority 2007, dated 2013)

Tests used:
HCT 116 (colon) cells = assay: Anti-cancer screen, growth inhibition (MTT); assay type: cell-based; details: Homo sapiens, HCT-116 cells, 48 hours of incubation
In short: (§1)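 MTT added for 3 h at 37° C, formazan dissolved in DMSO and A570 read. A T0 plate was measured at compound addition.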

U251 (glioma) cells = assay: Anti-cancer screen, growth inhibition (MTT); assay type: cell-based; details: Homo sapiens, U-251 cells, 48 hours of incubation
In short: as §1

NCI-H460 (lung) cells = assay: Anti-cancer screen, growth inhibition (MTT); assay type: cell-based; details: Homo sapiens, 48 hours of incubation
In short: as §1

[1] = tested on: T1, HDAC (Mouse Liver Extract); assay: HDAC inhibition assay using Boc-Lys(Ac)-AMC substrate, mouse liver enzyme; assay type: biochemical;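 on IC50: IC50 for inhibition of HDAC activity in mouse liver extract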
T1 construct: Mouse liver enzyme (10 mg/ml) was diluted 1:6 with HDAC buffer

| GI50 (HCT 116 (colon) cells) [µM] | GI50 (U251 (glioma) cells) [µM] | GI50 (NCI-H460 (lung) cells) [µM] | HDAC Inhibition % (1 μM) [1] [%] | HDAC Inhibition % (10 μM) [1] [%] | IC50 [1] [nM] | SMILES |
| --- | --- | --- | --- | --- | --- | --- |
| 23 | 30 | 38 | 70.3 | 94.4 | – | O=C(/C=C/c1ccc(/C=C(/C(=O)NC2CC2)c2ccc(F)cc2)cc1)NCCCCCC(=O)NO [Example 75, 6-((1E)-3-(4-(3-(Cyclopropylamino)-2-(4-fluorophenyl)-3-oxoprop-1-en-1-yl)phenyl)acrylamido)-N-hydroxyhexanamide] |
| 5 | 10.5 | 2.3 | 97.8 | 100.0 | 3 | O=C(/C=C/c1ccc(/C=C(/C(=O)NC2CC2)c2ccccc2Cl)cc1)NCCCCCC(=O)NO [Example 77, 6-((1E)-3-(4-(3-(Cyclopropylamino)-2-(2-chlorophenyl)-3-oxoprop-1-en-1-yl)phenyl)acrylamido)-N-hydroxyhexanamide] |
| 5.6 | 22 | 10.3 | 98.1 | 99.9 | – | O=C(/C=C/c1ccc(/C=C(/C(=O)NC2CC2)c2ccccc2F)cc1)NCCCCCC(=O)NO [Example 78, 6-((1E)-3-(4-(3-(Cyclopropylamino)-2-(2-fluorophenyl)-3-oxoprop-1-en-1-yl)phenyl)acrylamido)-N-hydroxyhexanamide] |
| 8.2 | 3.2 | 2.2 | 99.1 | 100.0 | 14 | O=C(/C=C/c1ccc(/C=C(/C(=O)NC2CC2)c2ccc3c(c2)OCO3)cc1)NCCCCCC(=O)NO [Example 79, 6-((1E)-3-(4-(3-(Cyclopropylamino)-2-[benzodioxol-5-yl]-3-oxoprop-1-en-1-yl)phenyl)acrylamido)-N-hydroxyhexanamide] |
| 4 | 0.8 | 19 | 100.0 | 100.0 | < 1 | O=C(/C=C/c1ccc(/C=C(/C(=O)NC2CC2)c2cccc(Cl)c2)cc1)NCCCCCC(=O)NO [Example 80, 6-((1E)-3-(4-(3-(Cyclopropylamino)-2-(3-chlorophenyl)-3-oxoprop-1-en-1-yl)phenyl)acrylamido)-N-hydroxyhexanamide] |
| 5 | 0.4 | 11 | 97.0 | 100.0 | 10 | Cc1ccc(/C(=C\c2ccc(/C=C/C(=O)NCCCCCC(=O)NO)cc2)C(=O)NC2CC2)cc1 [Example 81, 6-((1E)-3-(4-(3-(Cyclopropylamino)-2-(4-methylphenyl)-3-oxoprop-1-en-1-yl)phenyl)acrylamido)-N-hydroxyhexanamide] |
| 3 | 7 | 1 | 93.2 | 98.6 | 8.5 | O=C(/C=C/c1ccc(/C=C(/C(=O)NC2CC2)c2ccccc2)cc1)NCCCCCC(=O)NO [Example 82, 6-((1E)-3-(4-(3-(cyclopropylamino)-2-phenyl-3-oxoprop-1-enyl)phenyl)acrylamido)-N-hydroxyhexanamide] |
| 24 | 24 | 70 | 93.5 | 96.5 | – | COc1ccc(/C(=C\c2ccc(/C=C/C(=O)NCCCCCC(=O)NO)cc2)C(=O)NC2CC2)cc1 [Example 84, 6-((1E)-3-(4-(3-(Cyclopropylamino)-2-(4-methoxyphenyl)-3-oxoprop-1-en-1-yl)phenyl)acrylamido)-N-hydroxyhexanamide] |
| 26 | 10.1 | 69 | 96.0 | 100.0 | – | COc1cccc(/C(=C\c2ccc(/C=C/C(=O)NCCCCCC(=O)NO)cc2)C(=O)NC2CC2)c1 [Example 85, 6-((1E)-3-(4-(3-(Cyclopropylamino)-2-(3-methoxyphenyl)-3-oxoprop-1-en-1-yl)phenyl)acrylamido)-N-hydroxyhexanamide] |
| 19 | 10.5 | 50 | 95.6 | 98.6 | – | O=C(/C=C/c1ccc(/C=C(/C(=O)N2CCOCC2)c2ccc(F)cc2)cc1)NCCCCCC(=O)NO [Example 86, 6-((1E)-3-(4-(3-(Morpholino)-2-(4-fluorophenyl)-3-oxoprop-1-enyl)phenyl)acrylamido)-N-hydroxyhexanamide] |
| 40 | 20 | 70 | 91.0 | 98.6 | – | O=C(/C=C/c1ccc(/C=C(/C(=O)N2CCOCC2)c2ccccc2F)cc1)NCCCCCC(=O)NO [Example 87, 6-((1E)-3-(4-(3-(Morpholino)-2-(2-fluorophenyl)-3-oxoprop-1-en-1-yl)phenyl)acrylamido)-N-hydroxyhexanamide] |
| 11 | 18 | > 100 | 97.9 | 98.8 | – | COc1ccc(/C(=C\c2ccc(/C=C/C(=O)NCCCCCC(=O)NO)cc2)C(=O)NC2CC2)cc1F [Example 88, 6-((1E)-3-(4-(3-(Cyclopropylamino)-2-(3-fluoro-4-methoxyphenyl)-3-oxoprop-1-en-1-yl)phenyl)acrylamido)-N-hydroxyhexanamide] |
| 40 | 13 | > 100 | 42.1 | 70.3 | – | O=C(/C=C/c1ccc(/C=C(/C(=O)NC2CC2)c2ccc(F)cc2)cc1)NCc1ccc(C(=O)NO)cc1 [Example 89, 4-(((1E)-3-(4-(3-(Cyclopropylamino)-2-(4-fluorophenyl)-3-oxoprop-1-en-1-yl)phenyl)acrylamido)methyl)-N-hydroxybenzamide] |
| 3.5 | 4.5 | 11 | 94.6 | 100.0 | 13 | O=C(/C=C/c1ccc(/C=C(/C(=O)NC2CC2)c2ccccc2Cl)cc1)NCc1ccc(C(=O)NO)cc1 [Example 90, 4-(((1E)-3-(4-(3-(Cyclopropylamino)-2-(2-chlorophenyl)-3-oxoprop-1-en-1-yl)phenyl)acrylamido)methyl)-N-hydroxybenzamide] |
| 0.2 | 0.2 | 25 | 99.8 | 100.0 | < 1 | O=C(/C=C/c1ccc(/C=C(/C(=O)NC2CC2)c2cccc(Cl)c2)cc1)NCc1ccc(C(=O)NO)cc1 [Example 91, 4-(((1E)-3-(4-(3-(Cyclopropylamino)-2-(3-chlorophenyl)-3-oxoprop-1-en-1-yl)phenyl)acrylamido)methyl)-N-hydroxybenzamide] |
| 3 | 24 | 0.1 | 85.8 | 99.7 | 1.7 | Cc1ccc(/C(=C\c2ccc(/C=C/C(=O)NCc3ccc(C(=O)NO)cc3)cc2)C(=O)NC2CC2)cc1 [Example 92, 4-(((1E)-3-(4-(3-(Cyclopropylamino)-2-(4-methylphenyl)-3-oxoprop-1-en-1-yl)phenyl)acrylamido)methyl)-N-hydroxybenzamide] |
